Test results published in publication PMC9698340, “Discovery and SAR Study of Quinoxaline–Arylfuran Derivatives as a New Class of Antitumor Agents” (Pharmaceutics, 2022).

Key:
PC3 cells = experiment: CCK-8 antiproliferation assay, PC3; type: cell-based; conditions: Homo sapiens, PC-3, 48 h
Protocol: (§1) Human lung carcinoma cell lines A549, human cervical cancer cell lines HeLa, human prostate cancer cell lines PC3, human colorectal carcinoma cell lines HCT116, and human liver cells L02 were purchased from the Chinese Academy of Sciences Shanghai Cell Bank (Shanghai, China). HeLa, A549, PC3, HCT116, and L02 cells were cultured in DMEM Dulbecco’s Modified Eagle Medium (DMEM; Gibco Inc., Gaithersburg, MD, USA). All cultures were provided with 10% fetal bovine serum (FBS; YHSM, Beijing, China), 100 IU/mL penicillin, and 100 μg/mL streptomycin, and cells were incubated at 37 °C in an atmosphere of 5% CO2.
(§2) Cell viability was determined using a CCK-8 kit (Apexbio, Houston, TX, USA). […] Subsequently, absorbance was assessed at 450 nm. Three duplicates were set in each group.
(§3) All synthesized quinoxalines compounds were tested for in vitro cytotoxicity against four cancer cell lines (HeLa, PC3, A549, and HCT116). The inhibitory effects of these compounds were evaluated using the CCK-8 assay after treatment with 20 μM of each compound. […] The species of phenyl substituents have a significant effect on the activity. […] By comparison, hydrophobic substitution at the phenyl ring gave derivatives with relatively low potency (QW7–8). In addition, large substituents on the phenyl ring exerted an unfavorable influence on the potency of the compounds (QW8 and QW16).

[1] = test system: STAT3 phosphorylation (Y705) in HeLa cells; experiment: Western blot of STAT3 Y705 phosphorylation; type: cell-based, human; conditions: 12 h
Protocol: HeLa cells were seeded in a 6-well plate overnight and treated with QW12 for 24 h. The cells were then harvested and washed with cold PBS and lysed with RIPA buffer supplemented with a protease and phosphatase inhibitor cocktail. Protein concentration was measured using a BCA protein assay kit (Boster Biological Technology Co., Ltd., Wuhan, China). Proteins were separated by 10% SDS-PAGE gel and transferred onto polyvinylidene difluoride (PVDF) membranes (Millipore Co., Billerica, MA, USA). After blocking with 5% mild in PBST for 1 h at room temperature, membranes were incubated with specific primary antibodies against STAT3 (#ET1605-45), Bcl-2 (#ET1603-11), Bax (#ET1603-34), or GAPDH (#HA721136) overnight at 4 °C. The above antibodies were purchased from HUABIO, China. Phospho-STAT3 (Tyr 705) (#9145S) and anti-rabbit IgG, HRP-linked antibody (#7074S) were purchased from Cell Signaling Technology, Inc. America. […]
The activation of STAT3 is tightly regulated during various physiological processes, and the aberrant and persistent activation of STAT3 has been found in various types of cancer. […] Western blot analysis determined whether QW12 could also regulate the STAT3 signaling pathway in HeLa cells. HeLa cells were treated with QW12 for 12 h, and total cell lysates were prepared; Y705-phosphorylated STAT3 proteins were detected using a specific antibody.

HeLa cells [2] = experiment: Annexin V-FITC/PI apoptosis assay, flow cytometry; type: cell-based, human; conditions: control 3.5%
Protocol: For the Annexin V apoptosis assay, cells were collected at the end of the treatment, washed with cold PBS, and stained with the PI/Annexin V-FITC apoptosis kit (4A Biotech Co., Ltd., Beijing, China) following the manufacturer’s instructions. All flow cytometric analyses were performed at the Tianfu Science and Technology Park Molecular and Cell Platform in the West China Hospital.

HeLa cells [3] = experiment: Colony formation (plate-cloning) assay; type: cell-based, human; conditions: different concentrations, 24 h treatment
Protocol: HeLa cells were digested and seeded directly in 6-well plates (1 × 10^3 cells/well) for the colony-formation assay and cultured in the presence of 10% FBS and 1% penicillin/streptomycin at 37 °C with 5% CO2 for 12 h in confluent cell monolayers. The cells were then treated with QW12 at the indicated concentrations for 24 h. Two weeks later, the medium was removed, and the plates were washed with phosphate-buffered saline (PBS) three times. Cells were fixed with anhydrous ethanol for 30 min and then stained with Giemsa dye solution (Solarbio) for 30 min. The plates were dried with a blower to ensure high-quality images were obtained. Colonies were defined as >50 cells/colony.

HeLa cells [4] = experiment: CCK-8 antiproliferation assay, HeLa; type: cell-based; conditions: Homo sapiens, 48 h
Protocol: as §1, §2, §3

HeLa cells [5] = experiment: Wound healing assay; type: cell-based, human; conditions: after 48 h, control 55.7%
Protocol: A total of 1 × 10^6 cells/well in the logarithmic growth phase were seeded in 6-well plates. When cell density reached 80 to 90%, a scratch was made in the monolayer in the middle of the well with a 200 μL pipette tip. The tip was kept perpendicular to the bottom of the well to obtain a straight gap. The detached cells were washed away and removed. The healing of the wound within the same scraped line was then observed and photographed at the indicated time points (0 h, 24 h, 48 h). Each experiment was repeated three times.

[6] = test system: phosphorylated AKT (T308) in HeLa cells; experiment: Western blot of AKT (T308) phosphorylation; type: cell-based, human; conditions: total AKT not affected, reversed by NAC
[7] = test system: Bcl-2 and Bax in HeLa cells; experiment: Western blot of Bcl-2 and Bax; type: cell-based, human; conditions: 24 h
Protocol: HeLa cells were seeded in a 6-well plate overnight and treated with QW12 for 24 h. The cells were then harvested and washed with cold PBS and lysed with RIPA buffer supplemented with a protease and phosphatase inhibitor cocktail. Protein concentration was measured using a BCA protein assay kit (Boster Biological Technology Co., Ltd., Wuhan, China). Proteins were separated by 10% SDS-PAGE gel and transferred onto polyvinylidene difluoride (PVDF) membranes (Millipore Co., Billerica, MA, USA). After blocking with 5% mild in PBST for 1 h at room temperature, membranes were incubated with specific primary antibodies against STAT3 (#ET1605-45), Bcl-2 (#ET1603-11), Bax (#ET1603-34), or GAPDH (#HA721136) overnight at 4 °C. The above antibodies were purchased from HUABIO, China. Phospho-STAT3 (Tyr 705) (#9145S) and anti-rabbit IgG, HRP-linked antibody (#7074S) were purchased from Cell Signaling Technology, Inc. America. The next day, the membranes were washed with PBST three times and incubated with secondary antibodies 2 h at room temperature. Images were captured and documented with a CCD system (Tanon 5200, Biotanon, Shanghai, China).

HeLa cells [8] = experiment: Cell cycle analysis, PI flow cytometry; type: cell-based, human; conditions: 24 h
Protocol: For cell cycle analysis, cells were collected after treatment, washed twice with cold PBS, fixed in 70% ethanol overnight, and stained with PI ([…], Sigma, Shanghai, China), plus 0.2 mg/mL of DNase-free RNase A (Qiagen) for 1 h at 4 °C.

HeLa cells [9] = experiment: Hoechst-33342 staining; type: cell-based, human; conditions: 24 h, vs control
Protocol: HeLa cells (4 × 10^5 cells) were incubated in a 6-well plate for 12 h. The cells were then treated with QW12 at the indicated concentrations for 24 h. The cells were washed twice with PBS. The cells were then incubated with Hoechst-33342 (10 μg/mL) for 5 min at room temperature in darkness. After incubation, stained cells were observed under an inverted phase contrast microscope (OLYMPUS IX73, Tokyo, Japan).

[10] = HeLa cells, 10, 40 μM, vs control

Q: Which results are given for `COc1cc(-c2ccc(/C=N/NC(=O)c3ccc(O)cc3)o2)c(OC)cc1-c1ccc2nccnc2c1` [QW12, (E)-N’-((5-(2,5-dimethoxy-4-(quinoxalin-6-yl)phenyl)furan-2-yl)methylene)-4-hydroxybenzohydrazide]?
A: inhibition at 20 µM (PC3 cells; 20 μM, CCK-8, mean ± SD, read-out: Inhibition Rate (%) at 20 μM, PC3): 52.55 ± 0.47%; IC50 (PC3 cells; CCK-8, read-out: IC50 ± SD, PC3): 12.7 ± 0.57 µM; effect on STAT3 Tyr705 phosphorylation [1]: inhibited Tyr705 phosphorylation in a dose-dependent manner; effect on total STAT3 level [1]: also decreased; cell apoptosis rate (HeLa cells [2]; 10 μM): 13.9%; cell apoptosis rate (HeLa cells [2]; 40 μM): 34.7%; effect on proliferation in plate-cloning assay (HeLa cells [3]): proliferated at a significantly lower rate than the control; IC50 (HeLa cells [4]; HeLa, CCK-8, read-out: IC50 ± SD, HeLa): 10.58 ± 0.1 µM; inhibition at 20 µM (HeLa cells [4]; 20 μM, CCK-8, mean ± SD, read-out: Inhibition Rate (%) at 20 μM, HeLa): 76.35 ± 0.11%; rate of scratch closure (HeLa cells [5]; 10 μM): 28.0%; rate of scratch closure (HeLa cells [5]; 40 μM): 17.2%; effect on phosphorylated AKT levels (T308) [6]: significantly decreased; Bcl-2/Bax expression ratio ([7]; 40 μM, control 1.00): 0.66 ± 0.01; Bax expression [7, 10]: increased slightly; Bcl-2 expression [7, 10]: decreased significantly; HeLa cell population in the S phase (HeLa cells [8]; 10 μM): 23.19%; HeLa cell population in the S phase (HeLa cells [8]; 40 μM): 51.88%; percentage of cells in phases G0/G1 and G2/M (HeLa cells [8]; 10 and 40 μM): decreased significantly; nuclear morphology (Hoechst staining) (HeLa cells [9]): significant apoptotic morphological characteristics were observed
